Measured values: patent US12715781B2, “Water treatment and purification method” (priority 2019, dated 2026)

Tests used:
[1] = system: S. aureus ATCC 25923; experiment: Agar well diffusion, zone of inhibition; format: cell-based, Staphylococcus aureus; details: 8 mm wells, nanoparticles 100 μL (50 μg) per well, tetracycline 15 μg/wells, 24 hr at 37° C.
Protocol: (§1) For bacterial growth, a lawn of culture was prepared by spreading the […] of each test organism on nutrient agar plates. Plates were left standing for 10 minutes to let the culture get absorbed. Then 8 mm wells were punched into the nutrient agar plates for testing nanomaterial antimicrobial activity. Using a micropipette, 100 μL (50 μg) of the sample of nanoparticle suspension was poured onto each of five wells on all plates. After 24 hr incubation at 37° C.±2° C., the diameter of inhibition zone was measured.

[2] = system: E. coli; experiment: Agar well diffusion, zone of inhibition; format: cell-based; details: 8 mm wells, nanoparticles 100 μL (50 μg) per well, tetracycline 15 μg/wells, 24 hr at 37° C.
Protocol: as §1

`CN(C)[C@@H]1C(O)=C(C(N)=O)C(=O)[C@@]2(O)C(O)=C3C(=O)c4c(O)cccc4[C@@](C)(O)[C@H]3C[C@@H]12` [Tetracycline, tetracycline] was tested, and the Inhibitions zones diameters [1] was 18 ± 0.2 mm and the Inhibitions zones diameters [2] was 20 ± 0.2 mm.
